{"source": "patent US20210045385A1", "about": "“PYRIDAZINONE-SUBSTITUTED KETOXIMES AS HERBICIDES” (FMC Corporation, priority 2018, published 2021)", "assay_type_in_all_cases": "in vivo", "key": {"[1]": {"tested_on": "foxtail, giant (giant foxtail, Setaria faberii)", "assay": "Test A preemergence, visual plant response rating", "how_it_was_run": "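Ratings 0–100 (100 = complete control), visual, vs untreated controls at ~10 days. Application pre- or postemergence; solvent mixture with surfactant; loam/sand medium.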"}, "[2]": {"tested_on": "Italian ryegrass (Lolium multiflorum)", "assay": "Test A preemergence, visual plant response rating", "how_it_was_run": "(§1)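 Greenhouse evaluation, approx. 10 days post-spray. Soil: loam + sand. Postemergence stage: 1–2 leaves, height 2–10 cm. Vehicle: non-phytotoxic solvent blend with surfactant. Score: visual injury on a 0 (no effect) to 100 (complete control) scale.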"}, "kochia (Kochia scoparia) [3]": {"tested_on": "kochia (Kochia scoparia)", "assay": "Test A preemergence, visual plant response rating", "how_it_was_run": "as §1"}, "[4]": {"tested_on": "pigweed (Amaranthus retroflexus)", "assay": "Test A preemergence, visual plant response rating", "how_it_was_run": "as §1"}, "[5]": {"tested_on": "barnyardgrass (Echinochloa crus-galli)", "assay": "Test A preemergence, visual plant response rating", "how_it_was_run": "as §1"}, "[6]": {"tested_on": "ragweed (common ragweed, Ambrosia elatior)", "assay": "Test A preemergence, visual plant response rating", "how_it_was_run": "as §1"}, "[7]": {"tested_on": "blackgrass (Alopecurus myosuroides)", "assay": "Test A postemergence, visual plant response rating", "how_it_was_run": "as §1"}, "[8]": {"tested_on": "foxtail, giant (giant foxtail, Setaria faberii)", "assay": "Test A postemergence, visual plant response rating", "how_it_was_run": "as §1"}, "[9]": {"tested_on": "Italian ryegrass (Lolium multiflorum)", "assay": "Test A postemergence, visual plant response rating", "how_it_was_run": "as §1"}, "kochia (Kochia scoparia) [10]": {"tested_on": "kochia (Kochia scoparia)", "assay": "Test A postemergence, visual plant response rating", "how_it_was_run": "as §1"}, "[11]": {"tested_on": "pigweed (Amaranthus retroflexus)", "assay": "Test A postemergence, visual plant response rating", "how_it_was_run": "as §1"}, "corn (Zea mays)": {"tested_on": "corn (Zea mays)", "assay": "Test A postemergence, visual plant response rating", "how_it_was_run": "as §1"}, "[12]": {"tested_on": "barnyardgrass (Echinochloa crus-galli)", "assay": "Test A postemergence, visual plant response rating", "how_it_was_run": "as §1"}, "[13]": {"tested_on": "wheat (Triticum aestivum)", "assay": "Test A postemergence, visual plant response rating", "how_it_was_run": "as §1"}, "[14]": {"tested_on": "galium (catchweed bedstraw, Galium aparine)", "assay": "Test A postemergence, visual plant response rating", "how_it_was_run": "as §1"}, "[15]": {"tested_on": "ragweed (common ragweed, Ambrosia elatior)", "assay": "Test A postemergence, visual plant response rating", "how_it_was_run": "as §1"}, "[16]": {"tested_on": "ducksalad (Heteranhera limosa)", "assay": "Test B flooded paddy test, visual plant response rating", "details": "250 g ai/ha, Flood, applied to paddy water, 2-leaf stage, evaluated after 13 to 15 days", "how_it_was_run": "(§2)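 Plants were raised to the 2-leaf stage, then pots were flooded to 3 cm above the soil and test compound was applied directly into the paddy water. Water depth was held for the whole test; after 13 to 15 days in a greenhouse, responses were scored visually against controls.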"}, "rice (Oryza sativa)": {"tested_on": "rice (Oryza sativa)", "assay": "Test B flooded paddy test, visual plant response rating", "details": "250 g ai/ha, Flood, applied to paddy water, 2-leaf stage, evaluated after 13 to 15 days", "how_it_was_run": "as §2"}, "[17]": {"tested_on": "barnyardgrass (Echinochloa crus-galli)", "assay": "Test B flooded paddy test, visual plant response rating", "details": "250 g ai/ha, Flood, applied to paddy water, 2-leaf stage, evaluated after 13 to 15 days", "how_it_was_run": "as §2"}, "[18]": {"tested_on": "sedge, umbrella (small-flower umbrella sedge, Cyperus difformis)", "assay": "Test B flooded paddy test, visual plant response rating", "details": "250 g ai/ha, Flood, applied to paddy water, 2-leaf stage, evaluated after 13 to 15 days", "how_it_was_run": "as §2"}, "[19]": {"details": "125 g ai/ha, preemergence, 0 to 100 scale, 0 no effect, 100 complete control"}, "[20]": {"details": "500 g ai/ha Preemergence, approx. 10 days"}, "[21]": {"details": "500 g ai/ha, postemergence, 0 is no effect, 100 is complete control"}, "[22]": {"details": "Postemergence, 125 g ai/ha, 0 to 100 scale (0 no effect, 100 complete control)"}}}
{"compound": "C=CCON=C(c1c(O)c(C)nn(C)c1=O)c1cc(Br)cc2ccccc12", "note": "[Compound 114]", "values": [{"measurement": "Foxtail, Giant plant response rating", "setting": "[1]; [19]", "value": 100}, {"measurement": "Foxtail, Giant plant response rating (0 to 100 scale)", "setting": "[1]; [20]", "value": 100}, {"measurement": "Ryegrass, Italian plant response rating", "setting": "[2]; [19]", "value": 70}, {"measurement": "Ryegrass, Italian plant response rating (0 to 100 scale)", "setting": "[2]; [20]", "value": 100}, {"measurement": "Kochia plant response rating", "setting": "kochia (Kochia scoparia) [3]; [19]", "value": 10}, {"measurement": "Kochia plant response rating (0 to 100 scale)", "setting": "kochia (Kochia scoparia) [3]; [20]", "value": 20}, {"measurement": "Pigweed plant response rating", "setting": "[4]; [19]", "value": 10}, {"measurement": "Pigweed plant response rating (0 to 100 scale)", "setting": "[4]; [20]", "value": 80}, {"measurement": "Barnyardgrass plant response rating", "setting": "[5]; [19]", "value": 90}, {"measurement": "Barnyardgrass plant response rating (0 to 100 scale)", "setting": "[5]; [20]", "value": 100}, {"measurement": "Ragweed plant response rating", "setting": "[6]; [19]", "value": 80}, {"measurement": "Ragweed plant response rating (0 to 100 scale)", "setting": "[6]; [20]", "value": 90}, {"measurement": "Blackgrass plant response rating (0 to 100 scale)", "setting": "[7]; [21]", "value": 90}, {"measurement": "Blackgrass plant response rating", "setting": "[7]; [22]", "value": 80}, {"measurement": "Foxtail, Giant plant response rating (0 to 100 scale)", "setting": "[8]; [21]", "value": 90}, {"measurement": "Foxtail, Giant plant response rating", "setting": "[8]; [22]", "value": 90}, {"measurement": "Ryegrass, Italian plant response rating (0 to 100 scale)", "setting": "[9]; [21]", "value": 90}, {"measurement": "Ryegrass, Italian plant response rating", "setting": "[9]; [22]", "value": 80}, {"measurement": "Kochia plant response rating (0 to 100 scale)", "setting": "kochia (Kochia scoparia) [10]; [21]", "value": 40}, {"measurement": "Kochia plant response rating", "setting": "kochia (Kochia scoparia) [10]; [22]", "value": 30}, {"measurement": "Pigweed plant response rating (0 to 100 scale)", "setting": "[11]; [21]", "value": 90}, {"measurement": "Pigweed plant response rating", "setting": "[11]; [22]", "value": 70}, {"measurement": "Corn plant response rating (0 to 100 scale)", "setting": "corn (Zea mays); [21]", "value": 80}, {"measurement": "Corn plant response rating", "setting": "corn (Zea mays); [22]", "value": 20}, {"measurement": "Barnyardgrass plant response rating (0 to 100 scale)", "setting": "[12]; [21]", "value": 90}, {"measurement": "Barnyardgrass plant response rating", "setting": "[12]; [22]", "value": 80}, {"measurement": "Wheat plant response rating (0 to 100 scale)", "setting": "[13]; [21]", "value": 50}, {"measurement": "Wheat plant response rating", "setting": "[13]; [22]", "value": 0}, {"measurement": "Galium plant response rating (0 to 100 scale)", "setting": "[14]; [21]", "value": 100}, {"measurement": "Galium plant response rating", "setting": "[14]; [22]", "value": 100}, {"measurement": "Ragweed plant response rating (0 to 100 scale)", "setting": "[15]; [21]", "value": 100}, {"measurement": "Ragweed plant response rating", "setting": "[15]; [22]", "value": 90}, {"measurement": "Plant response rating, Ducksalad (0 to 100 scale, 0 is no effect, 100 is complete control)", "setting": "[16]", "value": 85}, {"measurement": "Plant response rating, Rice (0 to 100 scale, 0 is no effect, 100 is complete control)", "setting": "rice (Oryza sativa)", "value": 35}, {"measurement": "Plant response rating, Barnyardgrass (0 to 100 scale, 0 is no effect, 100 is complete control)", "setting": "[17]", "value": 70}, {"measurement": "Plant response rating, Sedge, Umbrella (0 to 100 scale, 0 is no effect, 100 is complete control)", "setting": "[18]", "value": 85}]}
